Results: PMC10777911, “A Potent PDK4 Inhibitor for Treatment of Heart Failure with Reduced Ejection Fraction” (Cells, 2023)
Converted amounts (≈) assume the structure as drawn.

Legend:
[1] = tested on: TAC mice (heart failure with reduced EF); assay: Transverse aortic constriction (TAC) heart failure model, echocardiography; format: in vivo, mouse (C57BL/6J); conditions: 2.8 mg/kg i.p. once daily for 1 week, compared to DCA
Experimental: C57BL/6J mice were purchased from Japan SLC, Inc. (Hamamatsu, Japan) and Takasugi Experimental Animals Supply Co., Ltd. (Kasukabe, Japan), and were kept under a 12 h light–dark schedule. All animal handling procedures in this study complied with the Jichi Medical University Guide for Laboratory Animals and the ARRIVE guidelines. The Institutional Animal Care and Concern Committee at Jichi Medical University approved all experimental protocols. This study used 8-week-old male mice.
Mice were intubated prior to surgery and were maintained under assisted ventilation on a heating pad throughout the procedure. Under a microscope, a midline incision was made on the skin from the neckline to the mid-chest level. A partial thoracotomy was made through the second rib, and the sternum was retracted to aid visualization of the aorta. After periaortic tissue was removed, a 27-G blunt needle was placed in parallel along the transverse aorta, and the suture was tied over the needle between the innominate artery and the left common carotid. Then, the rib cage was closed, followed by closure of the skin. […] Mice were kept in a heating unit until they recovered completely from anesthesia.
At weeks 0, 4, and 5 after TAC induction, mice were anesthetized with 1.5% isoflurane and secured on an animal handling and physiological monitoring system in the supine position. Images were captured with a 30 MHz probe attached to a Vevo 2100 (VisualSonics, Toronto, ON, Canada). Heart rate was maintained at 400 to 500 bpm, and the temperature of the system was kept at 37 °C while echocardiographic images were captured. The ejection fraction was calculated using the Vevo2100 system based on the Teichholz method.
Four weeks after the TAC surgery, mice with an EF less than 55 were subjected to injection. Then, 2.8 mg/kg of compound 8 or DCA in 5% DMSO in saline or 5% DMSO in saline was injected peritoneally every day for 7 days.
(§1) With five synthesized Vitamin K3 derivatives, their in vitro PDK4 inhibitory activity and cytotoxicity were evaluated. In vitro activities were tested using fluorescently labeled PDH by measuring phosphorylated and unphosphorylated PDH of the derivatives using a CCD camera. For cytotoxicity, IC50 values were calculated by adding the derivatives to the human fibroblast culture medium and monitoring growth inhibition. Then, we evaluated the efficacy of novel PDK4 inhibitor candidates in the treatment of heart failure. The transverse aorta of wild-type mice was constricted to induce a pressure overload in the left ventricle, and the ejection fraction (EF) was postoperatively measured at 4 weeks. Subsequently, 2.8 mg/kg of each derivative was intraperitoneally administered to mice once daily for 1 week to evaluate improvement in EF values.

[2] = target: T1, Full-length human PDK4 (GST-fusion) (Homo sapiens, UniProt Q16654); assay: Off-chip mobility shift assay (MSA) for PDK4 inhibition; format: biochemical; conditions: at 10 µg/mL of each inhibitor; for inhibition at 10 µg/mL: read-out: PDK4 Inhibitory Activity (%)
T1 construct: GST (Glutathione S-transferase) (N); made in house; host or cells: E. coli
T1 sequence (Q16654 whole entry, the tested form may be a part): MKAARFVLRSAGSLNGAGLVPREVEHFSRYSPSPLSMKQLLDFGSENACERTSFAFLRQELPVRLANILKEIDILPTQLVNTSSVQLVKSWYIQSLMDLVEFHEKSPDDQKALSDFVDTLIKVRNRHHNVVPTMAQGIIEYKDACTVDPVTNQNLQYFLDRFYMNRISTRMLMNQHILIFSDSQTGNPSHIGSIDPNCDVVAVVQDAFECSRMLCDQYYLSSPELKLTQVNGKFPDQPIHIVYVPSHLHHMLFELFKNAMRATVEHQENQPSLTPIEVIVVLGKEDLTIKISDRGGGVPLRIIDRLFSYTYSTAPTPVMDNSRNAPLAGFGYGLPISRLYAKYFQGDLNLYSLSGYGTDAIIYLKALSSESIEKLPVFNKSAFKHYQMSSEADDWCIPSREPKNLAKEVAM
Experimental: Full-length human PDK4 [amino acids 1-411 of accession number NP_002603.1] was expressed as an N-terminal Glutathione S-transferase (GST)-fusion protein (73 kDa) using an E. coli expression system. GST-PDK4 was purified using glutathione affinity chromatography.
Derivatives were dissolved in dimethyl sulfoxide (DMSO) and further diluted in DMSO to prepare a solution with a 100-fold higher concentration than the test sample solution. This solution was further diluted 25-fold in assay buffer (20 mM 4-(2-hydroxyethyl)-1-piperazineethanesulfonic acid (HEPES), 0.01% Triton X-100, 2 mM dithiothreitol (DTT), pH 7.5) to make a test sample solution. The positive control substance solution was prepared the same way.
(1) 5µL of test sample solution, 5 µL of substrate/ATP/metal solution in assay buffer (20 mM HEPES, 0.01% Triton X-100, 2 mM DTT, pH 7.5), and 10 µL of kinase solution in assay buffer prepared in assay buffer were mixed in the wells of a 384-well polypropylene plate and allowed to react for 5 h at room temperature. (2) The reaction was stopped by adding 70 µL of Termination Buffer (QuickScout Screening Assist MSA; Carna Biosciences). (3) Substrate peptides and phosphorylated peptides in the reaction solution were separated and quantified using the LabChip system (Perkin Elmer, Shelton, CT, USA). (4) The product ratio (P/(P+S)) was calculated from the substrate peptide peak height (S) and the phosphorylated peptide peak height (P) of the kinase reaction.
The average signal in control wells containing all reaction components was considered to be 0% inhibition. The average signal in background wells (without enzyme) was considered as 100% inhibition, and the % inhibition was calculated from the average signal in each test sample well.

human fibroblast cells = assay: Cytotoxicity assay against human fibroblast cells (growth inhibition); format: cell-based; conditions: human fibroblasts, read-out: Toxicity (IC50), half-maximal inhibitory concentration to inhibit fibroblast growth
Experimental: Wild-type fibroblasts obtained from a volunteer expressing [F352F + V368V] (FV–FV alleles), purchased from RIKEN Cell Bank (Tsukuba, Japan), were used, and the cytotoxicity assay was carried out as described in the previous paper.
as §1

PDK4 = tested on: PDK4; design: method as in PMID 24865588; conditions: previous study; read-out: IC50 of PDK4 inhibition; cited from earlier work

Row | SMILES | inhibition at 10 µg/mL [2] | melting point | PDK4 Inhibitory Activity (%) [2] | Change in EF (EF5/EF4) after a week of daily injection [1] | IC50 (human fibroblast cells) | IC50 (PDK4)
1 | COC(=O)c1ccc2c(c1)C(=O)C(C)=CC2=O [Compound 5] | 34.6% |  |  | improve | 8 µg/mL (≈ 34.7 µM) | 
2 | COC(=O)c1ccc2c(c1)C(=O)C=C(C)C2=O [Compound 11] | 65.4% |  |  | improve | 7 µg/mL (≈ 30.4 µM) | 
3 | O=C(O)C(Cl)Cl [DCA, dichloroacetic acid] |  |  |  |  |  | 57.8 µM

The next lines start with results.

Row | inhibition at 10 µg/mL [2] | melting point | PDK4 Inhibitory Activity (%) [2] | SMILES | Change in EF (EF5/EF4) after a week of daily injection [1] | IC50 (human fibroblast cells) | IC50 (PDK4)
4 | 66.8% | 163 to 163.2 °C |  | CC1=CC(=O)c2cc(C(=O)NCC(=O)O)ccc2C1=O [Compound 13a] | improve | > 110 µg/mL | 
5 | 63.2% | 166.6 to 166.8 °C |  | CC1=CC(=O)c2cc(C(=O)N[C@@H](CO)C(=O)O)ccc2C1=O [Compound 13b] | improve | > 99 µg/mL | 
6 | 66% |  | 65.9% | CC1=CC(=O)c2ccccc2C1=O [Vitamin K3, reference compound] |  | 18 µg/mL (≈ 105 µM) | 
